Our source for the LD50, EC50 and IC50 values is US5914324A, “6-Hydroxy and 6-oxo-androstane derivatives active on the cardiovascular system and pharmaceutical compositions containing same” (Sigma-Tau Industrie Farmaceutiche Riunite S.p.A., priority 1996, dated 1999).

pEC50, pIC50: −log10 of the molar value. Structures can show the parent of a compound that is named as a salt. Bounds are passed on as bounds.

Data set [1] in a line: acute toxicity mouse oral. Particulars: in vivo. An excerpt:
Finally the compounds of the invention have a low toxicity when compared with standard cardiotonic steroids.

Another data set has as its system guinea pig left atrium. As to the kind of experiment: inotropic activity in vitro, electrically paced guinea pig left atrium. Particulars: Cavia porcellus.
The target of data set [2] is T1, Na+,K+-ATPase (Canis lupus familiaris, UniProt P50997).
T1 construct: Na^+,K^+ -ATPase receptor purified according to Jorghensen; from tissue
The data set is described as follows: displacement of the specific 3H-ouabain binding from the Na+,K+-ATPase receptor. Particulars: displacement of specific 3H-ouabain binding, purified enzyme. From the text:
(§1) To test the affinity for the receptor site of the Na^+,K^+ -ATPase and the inhibitory activity on the enzyme, the following tests were used: a) displacement of the specific 3H-ouabain binding from the Na^+,K^+ -ATPase receptor purified according to Jorghensen (Jorghensen P., BBA.

Data set [3] concerns the target T1, Na+,K+-ATPase. As to the kind of experiment: inhibition of the activity of the purified Na+,K+-ATPase (hydrolysis of 32P-ATP). Type of data set: biochemical. Particulars: purified enzyme.
From the text: as §1

A word on the LD50: it is the dose at which mortality reaches 50%. The low end stands for a more toxic substance, the high end for a less toxic substance. One may read the pEC50 as −log10 of the EC50, conventionally taken in molar units. A low value points to a high EC50. Usually pIC50 stands for −log10 of the IC50, conventionally taken in molar units. Low readings indicate a large IC50, high ones a small IC50.

For `C[C@H]1O[C@@H](O[C@H]2[C@@H](O)C[C@H](O[C@H]3[C@@H](O)C[C@H](O[C@H]4CC[C@@]5(C)[C@H](CC[C@@H]6[C@@H]5C[C@@H](O)[C@]5(C)[C@@H](C7=CC(=O)OC7)CC[C@]65O)C4)O[C@@H]3C)O[C@@H]2C)C[C@H](O)[C@@H]1O` [Digoxin, reference compound], in data set [1], the LD50 turned out to be 18 mg/kg. The negative logarithm of the EC50 (pEC50) in the data set on guinea pig left atrium was 6.30.

`CN(C)CCCO[C@H]1CC[C@@]2(C)[C@H](C1)C(=O)C[C@@H]1[C@@H]2CC[C@]2(C)C(=O)CC[C@@H]12` [I-m, 3β-(3-N,N-dimethylaminopropoxy)-5α-androstan-6,17-dione]: the pEC50 is 5.89 on Na+,K+-ATPase [2] and 4.70 in the data set on guinea pig left atrium. This compound yielded a 50% lethal dose (LD50) in data set [1] greater than 1000 mg/kg. On Na+,K+-ATPase [3], the pIC50 was 4.30.

As to `CN(C)CCO/N=C1/CC[C@@]2(C)[C@H](C1)C(=O)C[C@@H]1[C@@H]2CC[C@]2(C)C(=O)CC[C@@H]12` [I-i, (Z)-3-(2-N,N-dimethylaminoethoxyimino)-5α-androstan-6,17-dione], the pEC50 on Na+,K+-ATPase [2] was 6.30; with guinea pig left atrium, 5.15. This compound also came in with an LD50 in data set [1] greater than 1000 mg/kg. The same compound gave a pIC50 at Na+,K+-ATPase [3] of 4.92.

`C[C@]12CC[C@H](/C=N\OCCN)C[C@@H]1[C@@H](O)C[C@@H]1[C@@H]2CC[C@]2(C)[C@@H](O)CC[C@@H]12.O=C(O)C(=O)O` [I-d, (Z)-3β-(2-aminoethoxyiminomethyl)-5α-androstan-6α,17β-diol oxalate]: the values for the pEC50 at Na+,K+-ATPase [2] and with guinea pig left atrium were 6.89 and 4.98, respectively. In addition, the LD50 in data set [1] is greater than 600 mg/kg. The compound also showed a pIC50 on Na+,K+-ATPase [3] of 5.80.

In the case of `C[C@]12CCC(=NOCCN)C[C@@H]1[C@@H](O)C[C@@H]1[C@@H]2CC[C@]2(C)[C@@H](O)CC[C@@H]12` [I-a, (E,Z)-3-(2-aminoethoxyimino)-5α-androstan-6α,17β-diol oxalate], the results for the pEC50 at Na+,K+-ATPase [2] and in the data set on guinea pig left atrium were 7.00 and 5.60, respectively. In addition, the LD50 in data set [1] is greater than 600 mg/kg. Besides, the pIC50 against Na+,K+-ATPase [3] was 5.80.

Turning to `CN(C)CCO/N=C/C=C1\CC[C@@]2(C)[C@H](C1)[C@@H](O)C[C@@H]1[C@@H]2CC[C@]2(C)[C@@H](O)CC[C@@H]12` [I-f, (E)-3-[3-(2-N,N-dimethylaminoethoxyimino)(E)-propen-1-yl)-5α-androstan-6α,17β-diol], the pEC50 at Na+,K+-ATPase [2] is 7.00; in the data set on guinea pig left atrium, 6.10. Moreover, the LD50 in data set [1] came out at 560 mg/kg. Further, the pIC50 against Na+,K+-ATPase [3] was 6.00.

On to `C[C@]12CCC(=NOCCN)C[C@@H]1C(=O)C[C@@H]1[C@@H]2CC[C@]2(C)C(=O)CC[C@@H]12` [I-h, (E,Z)-3-(2-aminoethoxyimino)-5α-androstan-6,17-dione emioxalate], for which the pEC50 at Na+,K+-ATPase [2] was 7.70; in the data set with guinea pig left atrium, 6.22. Besides, the LD50 in data set [1] came to 520 mg/kg. Moreover, the pIC50 on Na+,K+-ATPase [3] was 6.52.

Consider `CN(C)CCO/N=C/C=C1\CC[C@@]2(C)[C@H](C1)C(=O)C[C@@H]1[C@@H]2CC[C@]2(C)C(=O)CC[C@@H]12` [I-k, (E)-3-[3-(2-N,N-dimethylaminoethoxyimino)(E)-propen-1-yl)-5α-androstan-6,17-dione oxalate], for which the figures for the pEC50 on Na+,K+-ATPase [2] and with guinea pig left atrium were 6.49 and 4.90, respectively. In data set [1], this compound displayed an LD50 greater than 600 mg/kg. The same compound gave a pIC50 against Na+,K+-ATPase [3] of 5.49.

Consider `CN(C)CCO/N=C\[C@H]1CC[C@@]2(C)[C@H](C1)[C@@H](O)C[C@@H]1[C@@H]2CC[C@]2(C)[C@@H](O)CC[C@@H]12` [I-e, (Z)-3β-(2-N,N-dimethylaminoethoxyiminomethyl)-5α-androstan-6α,17β-diol oxalate], for which the figures for the pEC50 at Na+,K+-ATPase [2] and in the data set on guinea pig left atrium were 6.80 and 5.25, respectively. This compound also yielded an LD50 in data set [1] greater than 600 mg/kg. Further, the pIC50 at Na+,K+-ATPase [3] is 5.70.
